Series [1] can be described thus: High throughput dissolution screening of Aspirin. The class given is physicochemical. The note with it: 10 mg powdered Aspirin in 10 ml deionized water, shaker, UV detector, 37 second sampling frequency for 30 minutes, FIG. 7. How it is done:
A 10 mg of powdered Aspirin standard from Aldrich was weighted into a 20 ml scintillation vial and put on a shaker at a robot platform. The shaker was then turned on and an automated dispensing unit with a 10 ml syringe dispensed 10 ml of deionized water into the 20 ml scintillation vial containing the 10 mg of Aspirin thereby initiating dissolution of the 10 mg of Aspirin into the 10 ml of deionized water to form, over time, a solution having an increasing concentration of aspirin.
Thereafter, an automated sampling unit aspirated approximately 300 μL of the solution (the sample itself never enters the syringe) through an in-line filter allowing a sampled aliquot of the filtered solution to enter a switching valve and fill a 20 μL sample loop connected to the ports of the switching valve. Once the 20 μL sample loop was filled with a portion of the aliquot, the switching valve was switched to a second position by automation, causing the sub-aliquot contained in the 20 μL sample loop to be discharged into an analytical unit. The analytical unit comprised a syringe pump and an UV detector, for determining concentration. At this point, the automated sampling unit returned the remainder portion of the filtered aliquot back through the filter and back into the solution contained in the scintillation vial. […]

For series [2] the following is noted: addition of viscogens such as glycerol or Ficoll; cited from earlier work.

In the case of `CC(=O)Oc1ccccc1C(=O)O` [Aspirin], the “time to reach maximum dissolution” value in series [1] is “less than 10 minutes”.
Vitamin-B12: in series [2], the photo stability result is recorded as “increase in photo stability”.

Values taken from patent publication US7234365B2, “Methods and systems for dissolution testing” (Symyx Technologies, Inc., priority 2003, dated 2007).
